Measurements from publication PMC8253220, “Molecular design, synthesis and in vitro biological evaluation of thienopyrimidine–hydroxamic acids as chimeric kinase HDAC inhibitors: a challenging approach to combat cancer” (Journal of Enzyme Inhibition and Medicinal Chemistry, 2021).
Several values for one entry are separate records, joined by “and”; a condition that tells them apart may be missing. Identical values can stand only once.

Experiments:
Test in all cases: NCI one-dose screen
Type in all cases: cell-based, human
[1] = tested on: M14; details: Melanoma M14, 10 µM single dose
How it was run: (§1)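 At 10 μM, a single concentration, compounds were evaluated for antiproliferative effect in the NCI 60-line screen, with growth expressed relative to untreated control cells.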

[2] = tested on: UO-31; details: Renal UO-31, 10 µM single dose
How it was run: (§2)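 Compounds were tested at a single dose of 10 μM across the full NCI-60 cell line panel. Growth was expressed as percent growth relative to untreated control cells, reported as percent inhibition.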

[3] = tested on: NCI-H226; details: NSCLC NCI-H226, 10 µM single dose
How it was run: as §2

[4] = tested on: HOP-62; details: NSCLC HOP-62, 10 µM single dose
How it was run: as §1

[5] = tested on: SW-620; details: Colon SW-620, 10 µM single dose
How it was run: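 Single 10 μM dose, NCI-60 panel; read-out = % growth vs untreated controls → % inhibition.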

[6] = tested on: SK-MEL-5; details: Melanoma SK-MEL-5, 10 µM single dose
How it was run: as §1

[7] = tested on: NCI/ADR-RES; details: Ovarian NCI/ADR-RES, 10 µM single dose
How it was run: as §1

[8] = tested on: RXF 393; details: Renal RXF 393, 10 µM single dose
How it was run: as §1

[9] = tested on: HCT-15; details: Colon HCT-15, 10 µM single dose
How it was run: as §1

[10] = tested on: UACC-62; details: Melanoma UACC-62, 10 µM single dose
How it was run: as §1

[11] = tested on: A549/ATCC; details: NSCLC A549/ATCC, 10 µM single dose
How it was run: as §1

[12] = tested on: EKVX; details: NSCLC EKVX, 10 µM single dose
How it was run: as §2

[13] = tested on: MOLT-4; details: Leukemia MOLT-4, 10 µM single dose
How it was run: (§3)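 Screening used the full NCI panel of 60 cancer cell lines with compounds dosed once at 10 μM; the reported value is percent growth inhibition versus untreated controls.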

[14] = tested on: SNB-75; details: CNS SNB-75, 10 µM single dose
How it was run: as §2

[15] = tested on: CCRF-CEM; details: Leukemia CCRF-CEM, 10 µM single dose
How it was run: as §1

[16] = tested on: HS 578T; details: Breast HS 578T, 10 µM single dose
How it was run: as §1

[17] = tested on: HT29; details: Colon HT29, 10 µM single dose
How it was run: as §1

[18] = tested on: OVCAR-4; details: Ovarian OVCAR-4, 10 µM single dose
How it was run: as §1

[19] = tested on: IGROV1; details: Ovarian IGROV1, 10 µM single dose
How it was run: as §1

[20] = tested on: MDA-MB-468; details: Breast MDA-MB-468, 10 µM single dose
How it was run: as §3

[21] = tested on: SK-MEL-2; details: Melanoma SK-MEL-2, 10 µM single dose
How it was run: as §1

[22] = tested on: DU-145; details: Prostate DU-145, 10 µM single dose
How it was run: as §1

SMILES	Growth Percent [1]	Growth Percent [2]	Growth Percent [3]	Growth Percent [4]	Growth Percent [5]	Growth Percent [6]	Growth Percent [7]	Growth Percent [8]	Growth Percent [9]	Growth Percent [10]	Growth Percent [11]	Growth Percent [12]	Growth Percent [13]	Growth Percent [14]	Growth Percent [15]	Growth Percent [16]	Growth Percent [17]	Growth Percent [18]	Growth Percent [19]	Growth Percent [20]	other results
Cc1c(C(=O)NCCCC(=O)NO)sc2ncnc(Nc3ccccc3)c12 [Compound 20b, N-(4-(hydroxyamino)-4-oxobutyl)-5-methyl-4-(phenylamino)thieno[2,3-d]pyrimidine-6-carboxamide]	112.3% and 112.35%	88.2% and 88.29%	97.5% and 97.52%	100.8% and 100.81%	102.0% and 102.07%	97.6% and 97.62%	100.6% and 100.67%	98.6% and 98.66%	100.2% and 100.23%	96.8% and 96.85%	98.8% and 98.87%	89.6% and 89.65%	109.4% and 109.45%	95.6%	102.7% and 102.73%	102.2% and 102.24%	102.3% and 102.36%	105.4% and 105.47%	107.3% and 107.35%	98.0% and 98.03%	Growth Percent [21]: 102.9%; Growth Percent [22]: 111% and 111.21%
Cc1c(C(=O)NO)sc2ncnc(Nc3ccc(NC(=O)Nc4ccccc4)cc3)c12 [Compound 7a, 1–(4-(6-(hydroxycarbamoyl)-5-methylthieno[2,3-d]pyrimidin-4-ylamino)phenyl)-3-phenylurea]	95.1% and 95.18%	74.6% and 74.65%	99.4% and 99.47%	102.6% and 102.62%	98.4% and 98.44%	101.0% and 101.07%	102.1% and 102.16%	110.2%	99.1% and 99.16%	101.7% and 101.73%	103.8% and 103.82%	88.9% and 88.95%	103.9% and 103.94%	75.5% and 75.56%	97.4% and 97.44%	97.7% and 97.71%	94.7% and 94.78%	94.1% and 94.11%	103.6% and 103.69%	111.9% and 111.92%	Growth Percent [21]: 107.8%; Growth Percent [22]: 100.2% and 100.26%
